Source: US6372208B1, “Method of reducing an immune response to a recombinant virus” (The Trustees of the University of Pennsylvania, priority 1996, dated 2002)
“Also recorded” adds a separate entry of the source.

Legend:
[1] = system: human Ad5 recombinant vector; assay: Neutralizing antibody to adenovirus in BAL (Hela cell lacZ transduction); assay type: in vivo, C57BL/6 mice; settings: day 28, versus control mice
Description: BAL samples obtained from animals 28 days after primary exposure to recombinant virus were evaluated for neutralizing antibodies to adenovirus and anti-adenovirus antibody isotypes as follows. The same four groups of C57BL/6 mice, i.e., control, CD4^+ depleted, IL-12 treated and IFN-γ treated, were infected with H5.010BALP. Neutralizing antibody was measured in serially-diluted BAL samples (100 μl) which were mixed with H5.010CBlacZ (1×10^6 pfu in 20 μl), incubated for 1 hour at 37° C., and applied to 80% confluent Hela cells in 96 well plates (2×10^4 cells per well). After 60 minutes of incubation at 37° C., 100 μl of DMEM containing 20% FBS was added to each well. Cells were fixed and stained for β-galactosidase expression the following day.
The results are shown graphically in FIGS. 1A through 1C, which summarize neutralizing antibody titer, and the relative amounts (OD405) of IgG and IgA present in BAL samples.

[2] = system: recombinant adenoviruses H5.010CMVlacZ and H5.010CBALP; assay: Tail vein adenovirus gene transfer to mouse liver and readministration (Example 4); assay type: in vivo, C57BL/6 mice; settings: liver, second virus day 28, read day 31
Description: Recombinant virus (H5.010CMVLacZ or H5.010CBALP) was inactivated with ultraviolet light in the presence of 8-methoxypsoralen. Briefly, purified virus was resuspended in 0.33 mg/ml of 8-methoxypsoralen solution and exposed to a 365 nm UV light source on ice at 4 cm from the lamp filter for 30 min. The virus was then passed over a Sephadex G-50 column equilibrated with PBS. […] Suspensions of the viruses (2×10^9 pfu in 100 μl of PBS) were infused into the tail vein of 6 to 8 week old female mice as etailed in the following experiments. Each experiment was performed with a minimum of three mice in which transgene expression was quantified in a section of each of 5 lobes. The minimum analysis was 15 sections per experimental condition.
e. C57BL/6 mice were inoculated i.p. with 0.5 ml aliquots of 1:10 dilution of mouse ascites fluid containing the GK1.5 (anti-CD4 Mab, ATCC TIB207) at days −3, 0 and +3 as described in Example 2. This was equivalent to 100 μg of purified monoclonal antibody per injection. These CD4^+ cell-depleted mice were infected with H5.010CMVlacZ at day 0 and H5.010CBALP at day 28 (“CD4Ab mice”); and
f. […]
Mice from each group were subsequently euthanized and liver tissues evaluated for lacZ expression by X-gal histochemistry (magnification ×100) at day 3 and day 28; and for ALP expression by histochemical staining at day 31 (magnification ×100). […]

[3] = system: adenovirus (H5.010CMVlacZ); assay: Neutralizing antibody to adenovirus in serum; assay type: in vivo, C57BL/6 mice; settings: IL-12 i.p., liver-directed
Source text: Mice from each group were subsequently euthanized and liver tissues evaluated for lacZ expression by X-gal histochemistry (magnification ×100) at day 3 and day 28; and for ALP expression by histochemical staining at day 31 (magnification ×100). Development of neutralizing antibody to adenovirus in each group of mice was examined in serum samples obtained at day 28.
Serum samples were also collected at days 0, 3, 7, 14, 21, 28, 35 and 42 from each group of animals and assayed for neutralizing antibody titer. Serum samples were incubated at 56° C. for 30 minutes and then diluted in DMEM in twofold steps starting from 1:20. Each serum dilution (100 μl) was mixed with H5.010CMVlacZ (2×10^6 pfu in 20 μl), incubated for 1 hour at 37° C., and applied to 80% confluent Hela cells in 96-well plates (2×10^4 cells per well). After 60 minutes incubation at 37° C., 100 μl of DMEK containing 20% FBS were added to each well. Cells were fixed and stained for β-galactosidase expression on the following day. All of the cells stained blue in the absence of serum samples. […] FIGS. 3A-3D report the antibody titer expressed as a function of days post-infection.

[4] = system: virus-infected C57SV cells; assay: CTL 51Cr release assay of restimulated splenocytes, IL-12 (Example 6B); assay type: cell-based, C57BL/6 mice; settings: ALP virus, IL-12 i.p.; 51Cr release on virus-infected target cells
Description: B. Splenocytes harvested from C57BL/6 mice (“B6”) and IL-12-treated C57BL/6 mice (“B6+IL12”) of Example 5 were restimulated in vitro 10 days after administration of H5.010CBALP with H5.010CMVlacZ for 5 days in DMEM supplemented with 5% FBS and […] 2-mercaptoethanol. These cells were tested for specific lysis on mock-infected (“mock”) and H5.010CBALP (“ALP”)-infected C57SV cells in a 6 hour ^51Cr release assay performed subsequently using the following ratios of effector to target cells (c57SV, H-2^b) in 200 μl DMEM with 10% FBS in V-bottom 96-well plates (E:T=50:1, 25:1, 12:1, 6:1, 5:1 and 3:1).
Prior to mixing with the effector cells, target cells (1×10^6) were labeled with 100 μCi of ^51Cr after a 24 hr-infection with H5.010CMVlacZ at an moi of 50 and used at 5×10^3 cells/well. After incubation for 6 hr, aliquots of 100 μl supernatant were removed for counting in a gamma counter.

H5.010CMVlacZ virus = assay: Adenovirus-specific IgG1 and IgG2a in serum by ELISA; assay type: in vivo, C57BL/6 mice; settings: 28 days after infection
Description: A. Serum samples obtained from the C57BL/6 mice (“B6”) and IL-12 treated C57BL/6 (“B6+IL12”) mice of Example 5 were tested 28 days after infection for adenovirus-specific IgG1 and IgG2a antibody isotypes.
A solid phase enzyme linked immunosorbent assay (ELISA) using purified H5.010CMVlacZ virus as antigen was performed. Immunolon-2-U microtiter plates (Fisher) were coated with 200 ng/well of viral antigen in […] of PBS for 6 hours at 37° C., washed three times in PBS, and blocked in PBS/1% BSA overnight at 4° C. The following day, 4-fold serial diluted serum samples were added to antigen-coated plates and incubated for 4 hours at 37° C. Plates were washed three times in PBS/1% BSA and incubated with goat anti-mouse IgG1-biotin or goat anti-mouse IgG2a-biotin (CALTAG Laboratories, San Francisco, Calif.) at 1:5000 dilution for 2 hours at 37° C. Plates were washed as above and Avidin-ALP (Sigma) was added to each well at 1:5000 dilution for 1 hour at 37° C. Wells were again washed as above and PNPP substrate was added. Optical densities were read on a Biorad model 450 microplate reader.

## interleukin-12 [IL-12]
[1]
  reduction of neutralizing antibody in BAL: 20 fold
[2]
  readministration of virus (gene transfer): insufficient to allow efficient gene transfer upon readministration of virus
[3]
  reduction in neutralizing antibody: 3 fold
[4]
  adenovirus-specific CTL activity: did not increase adenovirus-specific CTL activity; also recorded: unaffected
H5.010CMVlacZ virus
  anti-viral IgG1 in serum: less anti-viral IgG1
  anti-viral IgG2a in serum: increased production of IgG2a
